Data as given in US20250221966A1, “RXFP1 AGONISTS” (BRISTOL-MYERS SQUIBB COMPANY, priority 2021, published 2025).

Molecular target: T1, human RXFP1 (Homo sapiens, UniProt Q9HBX9)
T1 construct: expressed in transfected cells
T1 sequence (Q9HBX9 1-757): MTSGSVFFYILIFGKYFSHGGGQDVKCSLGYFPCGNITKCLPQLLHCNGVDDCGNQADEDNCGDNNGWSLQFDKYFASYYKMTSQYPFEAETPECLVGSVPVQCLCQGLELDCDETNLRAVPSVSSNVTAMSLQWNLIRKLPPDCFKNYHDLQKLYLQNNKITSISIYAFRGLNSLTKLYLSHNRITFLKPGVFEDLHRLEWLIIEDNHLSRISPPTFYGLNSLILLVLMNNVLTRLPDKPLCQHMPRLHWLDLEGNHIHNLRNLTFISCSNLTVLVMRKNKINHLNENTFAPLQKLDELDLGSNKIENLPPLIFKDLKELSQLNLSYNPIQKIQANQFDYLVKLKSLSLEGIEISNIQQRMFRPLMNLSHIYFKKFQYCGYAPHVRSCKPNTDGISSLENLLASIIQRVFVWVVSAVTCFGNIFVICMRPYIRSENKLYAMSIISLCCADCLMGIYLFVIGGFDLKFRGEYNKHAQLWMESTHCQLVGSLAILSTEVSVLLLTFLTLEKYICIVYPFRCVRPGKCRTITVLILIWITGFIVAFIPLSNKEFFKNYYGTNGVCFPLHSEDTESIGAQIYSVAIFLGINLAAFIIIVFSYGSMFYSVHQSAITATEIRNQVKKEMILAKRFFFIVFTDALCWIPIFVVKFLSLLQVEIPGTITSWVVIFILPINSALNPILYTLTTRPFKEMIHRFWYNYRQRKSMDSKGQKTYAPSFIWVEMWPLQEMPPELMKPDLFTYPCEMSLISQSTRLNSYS
Test: RXFP1 cAMP assay (hRXFP1 HEK293 cAMP assay, HTRF)
Type: cell-based
Settings: HEK293 cells stably expressing human RXFP1, 30 min at room temperature, read-out: cAMP hRXFP1 HEK293 Assay EC50
Procedure, shortened: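 Potency and activity come from a four-parameter logistic fit of cAMP against compound concentration, tested from 0.010 nM up to 50 μM. The assay uses HEK293 cells stably expressing human RXFP1, incubated 30 min at ambient temperature with phosphodiesterase inhibitor IBMX present.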

Structure (SMILES) | EC50 [nM]
O=C(N[C@H]1[C@@H](C(=O)Nc2ccc(F)c(C(F)(F)F)c2)[C@H]2CC[C@@H]1/C2=C\C1CC1)c1ccc(F)c(C2=NOC3COCC23)c1 (stereo partly shown) [compound 714] | 1750
COc1ccc(C2=NO[C@H]3[C@@H]2CC[C@@H]3O)cc1C(=O)N[C@H]1[C@@H](C(=O)Nc2ccc(F)c(C(F)(F)F)c2)[C@H]2CC[C@@H]1/C2=C\C1CC1 (single isomer, unassigned) [compound 574] | 67.8
COc1ccc(C2=NOC3COCC23)cc1C(=O)N[C@H]1[C@@H](C(=O)NC(C)C2CCC2)[C@H]2CC[C@@H]1/C2=C\C1CC1 (single isomer, unassigned) [compound 683] | 626
COCC1(NC(=O)[C@@H]2[C@H](NC(=O)c3cc(C4=NOC5COCC45)ccc3OC)[C@@H]3CC[C@H]2/C3=C/C2CC2)CCCC1 (stereo partly shown) [compound 632] | 190
COc1ccc(-c2cc(C3=NOC4CC(CO)CC34)ccc2F)cc1C(=O)N[C@H]1[C@@H](C(=O)Nc2ccc(F)c(C(F)(F)F)c2)[C@H]2CC[C@@H]1/C2=C\C1CCCC1 (stereo partly shown) [compound 951] | 1
COc1ccc(C2=NOC3COCC23)cc1C(=O)N[C@H]1[C@@H](C(=O)Nc2cc(C(F)(F)F)c(F)cc2F)[C@H]2CC[C@@H]1/C2=C\C1CC1 (stereo partly shown) [compound 767] | 3
COc1ccc(C2=NOC3COCC23)cc1C(=O)N[C@H]1[C@@H](C(=O)NC(C)(C)c2ccccc2Cl)[C@H]2CC[C@@H]1/C2=C\C1CC1 (stereo partly shown) [compound 669] | 416
COc1ccc(C2=NOC(C3(O)CCCC3)C2)cc1C(=O)N[C@H]1[C@@H](C(=O)Nc2ccc(F)c(C(F)(F)F)c2)[C@H]2CC[C@@H]1/C2=C\C1CC1 (single isomer, unassigned) [compound 619] | 156
COc1ccc(-c2ccc(C(=O)NCCN3CCOCC3)cc2F)cc1C(=O)N[C@@H]1C2CCC(/C2=C/c2ccccc2)[C@@H]1C(=O)Nc1ccc(F)c(C(F)(F)F)c1 (stereo partly shown) [compound 198] | 76
O=C(N[C@H]1[C@@H](C(=O)Nc2ccc(F)c(C(F)(F)F)c2)[C@H]2CC[C@@H]1/C2=C\C1CC1)c1cc(C2=NOC3CC(CO)CC23)ccc1OCC(F)F (stereo partly shown) [compound 781] | 2.7
COc1cc(F)c(F)cc1C(=O)N[C@@H]1C2CCC(/C2=C/Cc2ccccc2)[C@@H]1C(=O)Nc1ccc(F)c(C(F)(F)F)c1 (stereo partly shown) [compound 57] | 550
COC(=O)C(NC(C)=O)c1ccc(F)c(-c2ccc(OC)c(C(=O)N[C@@H]3C4CCC(/C4=C/C4CC4)[C@@H]3C(=O)Nc3ccc(F)c(C(F)(F)F)c3)c2)c1 (stereo partly shown) [Example 171] | 5
COc1ccc(C2=NOC3COCC23)cc1C(=O)N[C@H]1[C@@H](C(=O)NCC2CC(F)(F)C2)[C@H]2CC[C@@H]1/C2=C\C1CC1 (stereo partly shown) [compound 621] | 164
COc1c(F)cc(C2=NOC3CC(CO)CC23)cc1C(=O)N[C@@H]1C2CCC(/C2=C/C2CC2)[C@@H]1C(=O)NC12CC(C#N)(C1)C2 (stereo partly shown) [compound 772] | 3.8
COc1ccc([C@@]2(O)CO[C@@H]3[C@@H](O)CO[C@@H]32)cc1C(=O)N[C@H]1[C@@H](C(=O)Nc2ccc(F)c(C(F)(F)F)c2)[C@H]2CC[C@@H]1/C2=C\C1CC1 [compound 700] | 1050
COc1ccc(-c2cc(CC(=O)O)ccc2F)cc1C(=O)N[C@@H]1C2CCC(C2=C(C)C)[C@@H]1C(=O)Nc1ccc(F)c(C(F)(F)F)c1 (stereo partly shown) [compound 155] | 87
COc1ccc(C2=NOC(CO)C2)cc1C(=O)N[C@@H]1C2CCC(/C2=C/C2CC2)[C@@H]1C(=O)Nc1ccc(F)c(C(F)(F)F)c1 (stereo partly shown) [compound 380] | 23
COc1ccc(-c2cc(C(OC(=O)NC(C)(C)C)C(=O)O)ccc2F)cc1C(=O)N[C@H]1[C@@H](C(=O)Nc2ccc(F)c(C(F)(F)F)c2)[C@H]2CC[C@@H]1/C2=C\CCC(F)(F)F (stereo partly shown) [compound 934] | 1.4
COc1ccc(C2=NOC(CC(=O)O)C2)cc1C(=O)N[C@@H]1C2CCC(/C2=C/C2CC2)[C@@H]1C(=O)Nc1ccc(F)c(C(F)(F)F)c1 (stereo partly shown) [compound 392] | 50
COc1ccc(C2=NOC(C(C)O)C2)cc1C(=O)N[C@H]1[C@@H](C(=O)Nc2ccc(F)c(C(F)(F)F)c2)[C@H]2CC[C@@H]1/C2=C\C1CC1 (single isomer, unassigned) [compound 554] | 37.6

Structure (SMILES) | EC50 [nM]
COc1ccc(C2=NOC3(C2)CC(CO)C3)cc1C(=O)N[C@H]1[C@@H](C(=O)Nc2ccc(F)c(C(F)(F)F)c2)[C@H]2CC[C@@H]1/C2=C\C1CC1 (single isomer, unassigned) [compound 711] | 1560
COc1ccc(C2=NOC3CC(CO)CC23)cc1C(=O)N[C@H]1[C@@H](C(=O)N[C@H](C)C2(C)CC2)[C@H]2CC[C@@H]1/C2=C\c1ccncn1 (stereo partly shown) [compound 807] | 2.1
COc1ccc(C2=NOC3CC(C)(CO)CC23)cc1C(=O)N[C@H]1[C@@H](C(=O)Nc2ccc(F)c(C(F)(F)F)c2)[C@H]2CC[C@@H]1/C2=C\C1CC1 (stereo partly shown) [compound 735] | 1.3
COc1cc(F)c(F)cc1C(=O)N[C@@H]1C2CCC(/C2=C/c2cnoc2)[C@@H]1C(=O)Nc1ccc(F)c(C(F)(F)F)c1 (stereo partly shown) [compound 39] | 88
CCO/N=C1\C2CCC1[C@H](C(=O)Nc1ccc(F)c(C(F)(F)F)c1)[C@@H]2NC(=O)c1cc(F)c(F)cc1OC (stereo partly shown) [compound 133] | 1700
COc1ccc(C2=NOC3COCC23)cc1C(=O)N[C@H]1[C@@H](C(=O)NC2(Cc3ccccc3)CC2)[C@H]2CC[C@@H]1/C2=C\C1CC1 (stereo partly shown) [compound 653] | 285
COc1ccc(C2=NOC(CO)C2CO)cc1C(=O)N[C@H]1[C@@H](C(=O)Nc2ccc(F)c(C(F)(F)F)c2)[C@H]2CC[C@@H]1/C2=C\C1CC1 (single isomer, unassigned) [compound 657] | 312
COc1ccc(C2=NOC(C)(C(=O)O)C2)cc1C(=O)N[C@@H]1C2CCC(/C2=C/C2CC2)[C@@H]1C(=O)Nc1ccc(F)c(C(F)(F)F)c1 (stereo partly shown) [compound 421] | 831
Cc1ccc(C2=NOC3COCC23)cc1C(=O)N[C@H]1[C@@H](C(=O)Nc2ccc(F)c(C(F)(F)F)c2)[C@H]2CC[C@@H]1/C2=C\C1CC1 (single isomer, unassigned) [compound 716] | 1980
COc1ccc(C2CCCN2C(=O)OC(C)(C)C)cc1C(=O)N[C@@H]1C2CCC(/C2=C/C2CC2)[C@@H]1C(=O)Nc1ccc(F)c(C(F)(F)F)c1 (single isomer, unassigned) [compound 715] | 1960
COc1ccc(-c2ccc(N3CCOCC3)c(C(=O)OC(C)(C)C)c2)cc1C(=O)N[C@H]1[C@@H](C(=O)Nc2ccc(F)c(C(F)(F)F)c2)[C@H]2CC[C@@H]1/C2=C\C1CC1 [Example 251, tert-butyl 3′-(((1R,2R,3S,4R,Z)-7-(cyclopropylmethylene)-3-((4-fluoro-3-(trifluoromethyl)phenyl)carbamoyl)bicyclo[2.2.1]heptan-2-yl)carbamoyl)-4′-methoxy-4-morpholino-[1,1′-biphenyl]-3-carboxylate] | 36
COc1ccc(C2CC3CNS(=O)(=O)C32)cc1C(=O)N[C@H]1[C@@H](C(=O)Nc2ccc(F)c(C(F)(F)F)c2)[C@H]2CC[C@@H]1/C2=C\C1CC1 (single isomer, unassigned) [compound 732] | 99
COc1ccc(-c2cc(C(NC(C)=O)C(=O)O)ccc2F)cc1C(=O)N[C@@H]1C2CCC(/C2=C/C2CC2)[C@@H]1C(=O)Nc1ccc(F)c(C(F)(F)F)c1 (stereo partly shown) [compound 184] | 11
COc1cc(C)c(C2=NOC3COCC23)cc1C(=O)N[C@H]1[C@@H](C(=O)Nc2ccc(F)c(C(F)(F)F)c2)[C@H]2CC[C@@H]1/C2=C\C1CC1 (single isomer, unassigned) [compound 686] | 653
COc1cc(F)c(F)cc1C(=O)N[C@@H]1C2CCC(/C2=C/C=C/c2ccccc2)[C@@H]1C(=O)Nc1ccc(F)c(C(F)(F)F)c1 (stereo partly shown) [compound 64] | 520
COc1ccc(C2=NOC3COCC23)cc1C(=O)N[C@H]1[C@@H](C(=O)NC23CC(C#N)(C2)C3)[C@H]2CC[C@@H]1/C2=C\C1CC1 (stereo partly shown) [compound 777] | 13.9
COc1ccc(C2=NO[C@@H]3C[C@H](CO)CN23)cc1C(=O)N[C@H]1[C@@H](C(=O)N[C@H](C)C2(C)CC2)[C@H]2CC[C@@H]1/C2=C\C1CC1 [compound 768] | 3
COc1ccc(-c2cccc(OC(F)(F)F)c2)cc1C(=O)N[C@@H]1C2CCC(/C2=C/C2CC2)[C@@H]1C(=O)Nc1ccc(F)c(C(F)(F)F)c1 (stereo partly shown) [compound 281] | 15
COc1ccc(-c2cc(C(OC(=O)NCCC(F)(F)F)C(F)(F)F)ccc2F)cc1C(=O)N[C@@H]1C2CCC(/C2=C/C2CC2)[C@@H]1C(=O)Nc1ccc(F)c(C(F)(F)F)c1 (stereo partly shown) [compound 213] | 2
COc1ccc(C2=NOC(C(C)O)C2)cc1C(=O)N[C@H]1[C@@H](C(=O)Nc2ccc(F)c(C(F)(F)F)c2)[C@H]2CC[C@@H]1/C2=C\C1CC1 (single isomer, unassigned) [compound 509] | 15.2
